Laboratory results from ChEMBL document CHEMBL2380196, “New anticancer active and selective phenylene-bisbenzothiazoles: synthesis, antiproliferative evaluation and DNA binding” (Eur J Med Chem, 2013).
The source made the active and inactive calls. No cut-off for these calls is given here.

How the values were obtained:
[1] = target: T1, DNA topoisomerase 1 (Homo sapiens) (UniProt P11387); assay: Inhibition of human topoisomerase 1-mediated supercoiled pUC19 DNA relaxation at 1 to 50 uM after 45 mins by agarose gel electrophoresis
T1 sequence (whole entry): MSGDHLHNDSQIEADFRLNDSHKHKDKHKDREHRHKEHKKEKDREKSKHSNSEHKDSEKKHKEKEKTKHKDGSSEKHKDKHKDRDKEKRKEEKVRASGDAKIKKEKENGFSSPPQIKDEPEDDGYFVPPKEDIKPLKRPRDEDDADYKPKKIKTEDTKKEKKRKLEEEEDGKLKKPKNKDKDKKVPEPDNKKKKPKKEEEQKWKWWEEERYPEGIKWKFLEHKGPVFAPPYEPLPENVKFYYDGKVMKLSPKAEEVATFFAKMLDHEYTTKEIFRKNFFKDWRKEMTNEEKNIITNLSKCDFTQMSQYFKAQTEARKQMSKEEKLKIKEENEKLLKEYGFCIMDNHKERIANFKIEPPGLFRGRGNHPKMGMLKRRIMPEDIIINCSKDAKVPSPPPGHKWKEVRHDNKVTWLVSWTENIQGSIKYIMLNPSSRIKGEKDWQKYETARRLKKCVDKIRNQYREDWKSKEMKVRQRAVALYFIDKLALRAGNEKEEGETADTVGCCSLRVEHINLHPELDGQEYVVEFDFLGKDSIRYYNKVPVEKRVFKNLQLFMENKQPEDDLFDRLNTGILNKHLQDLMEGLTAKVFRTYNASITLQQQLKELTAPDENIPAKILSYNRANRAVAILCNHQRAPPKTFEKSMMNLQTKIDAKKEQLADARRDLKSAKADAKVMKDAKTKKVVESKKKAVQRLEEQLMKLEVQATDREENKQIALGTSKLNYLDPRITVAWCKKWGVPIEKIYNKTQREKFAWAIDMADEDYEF

MIA PaCa-2 = assay: Induction of apoptosis in human MIAPaCa2 cells at 10 uM after 48 hrs using propidium iodide/Annexin-V staining by flow cytometry relative to control; assay type: functional
SW-620 [2] = assay: Cell cycle arrest in human SW620 cells assessed as accumulation in G2/M phase at 5 uM after 48 hrs using propidium iodide staining by flow cytometry relative to control; assay type: functional
SW-620 [3] = assay: Cell cycle arrest in human SW620 cells assessed as accumulation in G1 phase at 10 uM after 48 hrs using propidium iodide staining by flow cytometry relative to control; assay type: functional
SW-620 [4] = assay: Cell cycle arrest in human SW620 cells assessed as accumulation in sub-G1 phase at 10 uM after 24 hrs using propidium iodide staining by flow cytometry relative to control; assay type: functional
SW-620 [5] = assay: Cell cycle arrest in human SW620 cells assessed as accumulation in S phase at 5 uM after 24 hrs using propidium iodide staining by flow cytometry relative to control; assay type: functional
SW-620 [6] = assay: Cell cycle arrest in human SW620 cells assessed as accumulation in sub-G1 phase at 5 uM after 48 hrs using propidium iodide staining by flow cytometry relative to control; assay type: functional
[7] = target: T1, DNA topoisomerase 1 (Homo sapiens); assay: Inhibition of human topoisomerase 1-mediated supercoiled pUC19 DNA relaxation assessed as formation of open circle form after 45 mins using ethidium bromide staining by agarose gel electrophoresis
SW-620 [8] = assay: Cell cycle arrest in human SW620 cells assessed as accumulation in G2/M phase at 10 uM after 48 hrs using propidium iodide staining by flow cytometry relative to control; assay type: functional
SW-620 [9] = assay: Induction of apoptosis in human SW620 cells at 10 uM after 24 hrs using propidium iodide/Annexin-V staining by flow cytometry relative to control; assay type: functional
[10] = Binding affinity to DNA (unknown origin) after 15 mins by DNase I footprinting assay
SW-620 [11] = assay: Cell cycle arrest in human SW620 cells assessed as accumulation in G1 phase at 10 uM after 24 hrs using propidium iodide staining by flow cytometry relative to control; assay type: functional
SW-620 [12] = assay: Cell cycle arrest in human SW620 cells assessed as accumulation in G2/M phase at 5 uM after 24 hrs using propidium iodide staining by flow cytometry relative to control; assay type: functional

| Compound | inhibition [1] | Activity (MIA PaCa-2) | Activity (SW-620 [2]) | Activity (SW-620 [3]) | Activity (SW-620 [4]) | Activity (SW-620 [5]) | Activity (SW-620 [6]) | inhibition [7] | Activity (SW-620 [8]) | Activity (SW-620 [9]) | Activity [10] | Activity (SW-620 [11]) | Activity (SW-620 [12]) |
| --- | --- | --- | --- | --- | --- | --- | --- | --- | --- | --- | --- | --- | --- |
| Cl.Cl.c1cc2nc(-c3ccc(-c4nc5ccc(C6=NCCN6)cc5s4)cc3)sc2cc1C1=NCCN1 | Active | 4% | – | – | – | – | – | – | – | – | – | – | – |
| Cl.Cl.c1cc(-c2nc3ccc(C4=NCCN4)cc3s2)cc(-c2nc3ccc(C4=NCCN4)cc3s2)c1 | – | – | 14.7% | 23.7% | 45.3% | 46.6% | 24.8% | Active | 6.8% | 8% | Active | 29.9% | 15.5% |
